Reference: ChEMBL document CHEMBL5385897, “Computer-Aided drug design of new 2-amino-thiophene derivatives as anti-leishmanial agents” (Eur J Med Chem, 2023)

Assays:
[1] = Cytotoxicity against mouse J774.A1 cells incubated for 72 hrs by MTT colorimetric assay; type: toxicity, cell-based
[2] = system: Leishmania amazonensis; experiment: Antileishmanial activity against Leishmania amazonensis promastigote assessed as inhibition of parasite growth incubated for 72 hrs by MTT colorimetric assay; type: functional, organism-based
[3] = system: Leishmania amazonensis; experiment: Antileishmanial activity against Leishmania amazonensis axenic amastigote assessed as inhibition of parasite growth incubated for 72 hrs by MTT colorimetric assay; type: functional, organism-based
[4] = Selectivity index, ratio of CC50 for cytotoxicity against mouse J774.A1 cells to IC50 for antileishmanial activity against Leishmania amazonensis promastigote assessed as inhibition of parasite growth; type: toxicity, cell-based; details: read-out: Ratio CC50/IC50
[5] = Selectivity index, ratio of CC50 for cytotoxicity against mouse J774.A1 cells to IC50 for antileishmanial activity against Leishmania amazonensis axenic amastigote assessed as inhibition of parasite growth; type: toxicity, cell-based; details: read-out: Ratio CC50/IC50

N#Cc1c(/N=C/c2c[nH]c3ccc(Br)cc23)sc2c1CCNC2
CC50 at 72 h [1]: 11.2 µM
IC50 [2]: > 10 µM
IC50 [3]: > 10 µM

CC1CCc2c(sc(/N=C/c3c[nH]c4ccc(Br)cc34)c2C#N)C1 (stereo unspecified)
selectivity ratio [4]: > 10.1
CC50 at 72 h [1]: > 100 µM
IC50 [2]: 9.9 µM
selectivity ratio [5]: > 11.5
IC50 [3]: 8.72 µM

COc1ccc2[nH]cc(/C=N/c3sc4c(c3C#N)CCCCCC4)c2c1
IC50 [2]: 900 µM
IC50 [3]: 2160 µM

N#Cc1c(/N=C/c2c[nH]c3ccc(Br)cc23)sc2c1CCCCCC2
selectivity ratio [4]: > 21.1
CC50 at 72 h [1]: > 100 µM
IC50 [2]: 4.75 µM
selectivity ratio [5]: > 26.3
IC50 [3]: 3.8 µM

N#Cc1ccsc1/N=C/c1c[nH]c2ccc(Br)cc12
selectivity ratio [4]: 8.73
CC50 at 72 h [1]: 84.7 µM
IC50 [2]: 9.7 µM
selectivity ratio [5]: 119
IC50 [3]: 0.71 µM

N#Cc1c(/N=C/c2c[nH]c3ccc(Br)cc23)sc2c1CCCCCCCCCC2
CC50 at 72 h [1]: > 100 µM
IC50 [2]: > 10 µM
IC50 [3]: > 10 µM

N#Cc1c(N)sc2c1CCCC2
IC50 [3]: > 10 µM

N#Cc1c(/N=C/c2c[nH]c3ccc(Br)cc23)sc2c1CCC2
CC50 at 72 h [1]: > 100 µM
IC50 [2]: > 10 µM
IC50 [3]: > 10 µM

N#Cc1c(N)sc2c1CCCCCC2
selectivity ratio [4]: 36.6
CC50 at 72 h [1]: 43.9 µM
IC50 [2]: 1.2 µM
selectivity ratio [5]: 4.47
IC50 [3]: 9.8 µM

N#Cc1c(N)sc2c1CCCCC2
selectivity ratio [4]: 31.1
CC50 at 72 h [1]: 99.5 µM
selectivity ratio [5]: 35.7
IC50 [3]: 2.79 µM
